Measured values taken from patent US20220168427A1 (Ranok Therapeutics (Hangzhou) Co. Ltd., priority 2019, published 2022).

Experiments:
HSP90α = HSP90α (Homo sapiens, UniProt P07900); assay: HSP90α Binding Fluorescent Polarization (FP) Assay; details: competition with FITC-geldanamycin; read-out: HSP90 Binding Potency
Method in brief: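 Duplicate wells held BSA buffer, FITC-geldanamycin tracer, compound (3-fold dilution plate spanning 40 μM–2.0 nM) and recombinant protein diluted to 28 μg/ml before addition. Polarization read at 30, 60 and 120 min, 25 °C. Background-corrected mP values gave IC50 through a four-parameter inhibitor-response fit.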

BRD4 (BD1+BD2) = target: T1, BRD4 (BD1+BD2) (Homo sapiens, UniProt O60885); details: read-out: BRD4 Binding Potency
T1 construct: 1.8 μg/ml recombinant BRD4 (BD1+BD2 domains) protein

MV4-11 cells = assay: MV4-11 Cell Cytotoxicity Assay; type: cell-based, human; details: CCK-8; for IC50 at 72 h: human, MV4-11 cells
From the text: % Inhibition=100−(D−B)/(S−B)*100%.
S: The absorbance of the maximum (cells with DMSO)
B: The absorbance of the minimum (medium with DMSO)

Compound | IC50 (HSP90α) [nM] | IC50 (BRD4 (BD1+BD2)) [nM] | IC50 (MV4-11 cells; 72 hr) [nM] | IC50 at 72 h (MV4-11 cells) [nM]
COc1cccc(-c2cc(C(=O)Nc3ccc(-c4ccc(OC5CCN(CC[C@@H]6N=C(c7ccc(Cl)cc7)c7c(sc(C)c7C)-n7c(C)nnc76)CC5)cc4OCCN(C)C)cc3)ccc2OC)c1 [Compound 139, (S)—N-(4′-((1-(2-(4-(4-chlorophenyl)-2,3,9-trimethyl-6H-thieno[3,2-f][1,2,4]triazolo[4,3-a][1,4]diazepin-6-yl)ethyl)piperidin-4-yl)oxy)-2′-(2-(dimethylamino)ethoxy)-[1,1′-biphenyl]-4-yl)-3′,6-dimethoxy-[1,1′-biphenyl]-3-carboxamide] | > 1000 | 100 to 1000 | 100 to 1000 | 
CCc1cc(-c2nnc(O)n2-c2ccc(CNC(=O)C[C@@H]3N=C(c4ccc(Cl)cc4)c4c(sc(C)c4C)-n4c(C)nnc43)cc2)c(O)cc1O [Compound 56, 2-((6S)-4-(4-chlorophenyl)-2,3,9-trimethyl-6H-thieno[3,2-f][1,2,4]triazolo[4,3-a][1,4]diazepin-6-yl)-N-(4-(3-(5-ethyl-2,4-dihydroxyphenyl)-5-hydroxy-4H-1,2,4-triazol-4-yl)benzyl)acetamide] | 100 to 1000 | 100 to 1000 |  | 100 to 1000
Cc1nn(-c2ccc(C(N)=O)c(NCCOCCNC(=O)C[C@@H]3N=C(c4ccc(Cl)cc4)c4c(sc(C)c4C)-n4c(C)nnc43)c2)c2c1C(=O)CC(C)(C)C2 [Compound 20, 2-((2-(2-(2-((6S)-4-(4-chlorophenyl)-2,3,9-trimethyl-6H-thieno[3,2-f][1,2,4]triazolo[4,3-a][1,4]diazepin-6-yl)acetamido)ethoxy)ethyl)amino)-4-(3,6,6-trimethyl-4-oxo-4,5,6,7-tetrahydro-1H-indazol-1-yl)benzamide] | > 1000 | > 1000 |  | 100 to 1000
Cc1sc2c(c1C)C(c1ccc(Cl)cc1)=N[C@@H](CC(=O)NCCc1ccc(CN3CCC(Cc4ccc(-n5c(C(=O)NCC(F)(F)F)nnc5-c5cc(C(C)C)c(O)cc5O)cc4)CC3)cc1)c1nnc(C)n1-2 [Compound 95, (S)-4-(4-((1-(4-(2-(2-(4-(4-chlorophenyl)-2,3,9-trimethyl-6H-thieno[3,2-f][1,2,4]triazolo[4,3-a][1,4]diazepin-6-yl)acetamido)ethyl)benzyl)piperidin-4-yl)methyl)phenyl)-5-(2,4-dihydroxy-5-isopropylphenyl)-N-(2,2,2-trifluoroethyl)-4H-1,2,4-triazole-3-carboxamide, trifluoroacetic acid] | 100 to 1000 | 100 to 1000 |  | < 100
Cc1sc2c(c1C)C(c1ccc(Cl)cc1)=NC(CC(=O)N1CCC(Cc3ccc(CN(C)Cc4ccc(-n5c(C(=O)NCC(F)(F)F)nnc5-c5cc(C(C)C)c(O)cc5O)cc4)cc3)CC1)c1nnc(C)n1-2 (stereo in doubt) [Compound 84, (S)-4-(4-(((4-((1-(2-(4-(4-chlorophenyl)-2,3,9-trimethyl-6H-thieno[3,2-f][1,2,4]triazolo[4,3-a][1,4]diazepin-6-yl)acetyl)piperidin-4-yl)methyl)benzyl)(methyl)amino)methyl)phenyl)-5-(2,4-dihydroxy-5-isopropylphenyl)-N-(2,2,2-trifluoroethyl)-4H-1,2,4-triazole-3-carboxamide, trifluoroacetic acid] | 100 to 1000 | > 1000 |  | < 100
Cc1sc2c(c1C)C(c1ccc(Cl)cc1)=N[C@@H](CC(=O)N1CCC(CN[C@@H](C)C(=O)N[C@H](C(=O)N3CCC[C@H]3C(=O)Nc3snnc3-c3ccccc3)C3CCCCC3)CC1)c1nnc(C)n1-2 [Compound 129, (S)-1-((S)-2-((S)-2-(((1-(2-((S)-4-(4-chlorophenyl)-2,3,9-trimethyl-6H-thieno[3,2-f][1,2,4]triazolo[4,3-a][1,4]diazepin-6-yl)acetyl)piperidin-4-yl)methyl)amino)propanamido)-2-cyclohexylacetyl)-N-(4-phenyl-1,2,3-thiadiazol-5-yl)pyrrolidine-2-carboxamide] | > 1000 | > 1000 |  | > 1000
CCN(Cc1ccc(OCCCNC(=O)C[C@@H]2N=C(c3ccc(Cl)cc3)c3c(sc(C)c3C)-n3c(C)nnc32)cc1)Cc1ccc(-n2c(C(=O)NCC(F)(F)F)nnc2-c2cc(C(C)C)c(O)cc2O)cc1 [Compound 102, (S)-4-(4-(((4-(3-(2-(4-(4-chlorophenyl)-2,3,9-trimethyl-6H-thieno[3,2-f][1,2,4]triazolo[4,3-a][1,4]diazepin-6-yl)acetamido)propoxy)benzyl)(ethyl)amino)methyl)phenyl)-5-(2,4-dihydroxy-5-isopropylphenyl)-N-(2,2,2-trifluoroethyl)-4H-1,2,4-triazole-3-carboxamide, trifluoroacetic acid] | > 1000 | > 1000 |  | < 100
CCCc1cc(-c2nnc(C(=O)NCCN3CCCCC3)n2-c2ccc(CN3CCN(CC4CCN(C(=O)C[C@@H]5N=C(c6ccc(Cl)cc6)c6c(sc(C)c6C)-n6c(C)nnc65)CC4)CC3)cc2)c(O)cc1O [Compound 123, (S)-4-(4-((4-((1-(2-(4-(4-chlorophenyl)-2,3,9-trimethyl-6H-thieno[3,2-f][1,2,4]triazolo[4,3-a][1,4]diazepin-6-yl)acetyl)piperidin-4-yl)methyl)piperazin-1-yl)methyl)phenyl)-5-(2,4-dihydroxy-5-propylphenyl)-N-(2-(piperidin-1-yl)ethyl)-4H-1,2,4-triazole-3-carboxamide, trifluoroacetic acid] | 100 to 1000 | < 100 |  | < 100
Cc1sc2c(c1C)C(c1ccc(Cl)cc1)=N[C@@H](CC(=O)N[C@H](C)c1cccc(CN3CCC(Cc4ccc(-n5c(C(=O)NCC(F)(F)F)nnc5-c5cc(C(C)C)c(O)cc5O)cc4)CC3)c1)c1nnc(C)n1-2 [Compound 97, 4-(4-((1-(3-((R)-1-(2-((S)-4-(4-chlorophenyl)-2,3,9-trimethyl-6H-thieno[3,2-f][1,2,4]triazolo[4,3-a][1,4]diazepin-6-yl)acetamido)ethyl)benzyl)piperidin-4-yl)methyl)phenyl)-5-(2,4-dihydroxy-5-isopropylphenyl)-N-(2,2,2-trifluoroethyl)-4H-1,2,4-triazole-3-carboxamide, trifluoroacetic acid] | 100 to 1000 | < 100 |  | < 100
Cc1sc2c(c1C)C(c1ccc(Cl)cc1)=N[C@@H](CC(=O)N1CCN(Cc3ccc(-n4c(O)nnc4-c4cc(C(C)C)c(O)cc4O)cc3)CC1)c1nnc(C)n1-2 [Compound 38, 2-((6S)-4-(4-chlorophenyl)-2,3,9-trimethyl-6H-thieno[3,2-f][1,2,4]triazolo[4,3-a][1,4]diazepin-6-yl)-1-(4-(4-(3-(2,4-dihydroxy-5-isopropylphenyl)-5-hydroxy-4H-1,2,4-triazol-4-yl)benzyl)piperazin-1-yl)ethanone, trifluoroacetic acid] | 100 to 1000 | > 1000 |  | < 100
Cc1sc2c(c1C)C(c1ccc(Cl)cc1)=NC(CC(=O)N[C@H](C)c1ccc(CN3CCN(Cc4ccc(-n5c(O)nnc5-c5cc(C(C)C)c(O)cc5O)cc4)CC3)cc1)c1nnc(C)n1-2 (stereo in doubt) [Compound 70, 2-((6S)-4-(4-chlorophenyl)-2,3,9-trimethyl-6H-thieno[3,2-f][1,2,4]triazolo[4,3-a][1,4]diazepin-6-yl)-N—((R)-1-(4-((4-(4-(3-(2,4-dihydroxy-5-isopropylphenyl)-5-hydroxy-4H-1,2,4-triazol-4-yl)benzyl)piperazin-1-yl)methyl)phenyl)ethyl)acetamide, trifluoroacetic acid] | 100 to 1000 | 100 to 1000 |  | < 100
CCN(CC)CCNC(=O)c1nnc(-c2ccc(O)cc2O)n1-c1ccc(CN2CCN(CC3CCN(C(=O)C[C@@H]4N=C(c5ccc(Cl)cc5)c5c(sc(C)c5C)-n5c(C)nnc54)CC3)CC2)cc1 [Compound 111, (S)-4-(4-((4-((1-(2-(4-(4-chlorophenyl)-2,3,9-trimethyl-6H-thieno[3,2-f][1,2,4]triazolo[4,3-a][1,4]diazepin-6-yl)acetyl)piperidin-4-yl)methyl)piperazin-1-yl)methyl)phenyl)-N-(2-(diethylamino)ethyl)-5-(2,4-dihydroxyphenyl)-4H-1,2,4-triazole-3-carboxamide, trifluoroacetic acid] | 100 to 1000 | < 100 |  | < 100
Cc1sc2c(c1C)C(c1ccc(Cl)cc1)=N[C@@H](CC(=O)N[C@H](C)c1cccc(CN3CCC(Cc4ccc(-n5c(O)nnc5-c5cc(C(C)C)c(O)cc5O)cc4)CC3)c1)c1nnc(C)n1-2 [Compound 81, 2-((S)-4-(4-chlorophenyl)-2,3,9-trimethyl-6H-thieno[3,2-f][1,2,4]triazolo[4,3-a][1,4]diazepin-6-yl)-N—((R)-1-(3-((4-(4-(3-(2,4-dihydroxy-5-isopropylphenyl)-5-hydroxy-4H-1,2,4-triazol-4-yl)benzyl)piperidin-1-yl)methyl)phenyl)ethyl)acetamide, trifluoroacetic acid] | 100 to 1000 | 100 to 1000 |  | < 100
Cc1sc2c(c1C)C(c1ccc(Cl)cc1)=N[C@@H](CC(=O)N1CCN(Cc3ccc4c(c3)CN(C(=O)c3cc(C(C)C)c(O)cc3O)C4)CC1)c1nnc(C)n1-2 [Compound 141, (S)-2-(4-(4-chlorophenyl)-2,3,9-trimethyl-6H-thieno[3,2-f][1,2,4]triazolo[4,3-a][1,4]diazepin-6-yl)-1-(4-((2-(2,4-dihydroxy-5-isopropylbenzoyl)isoindolin-5-yl)methyl)piperazin-1-yl)ethan-1-one] | 100 to 1000 | 100 to 1000 |  | 100 to 1000
